These results are taken from a melting point compilation (Tetko et al.).

Structures are written as SMILES.

For `NCc1ccccc1-c1ccc(CN2CCCC2=O)cc1`, the melting point – broadly, the temperature, or range, at which the solid turns liquid – is 82 to 84 °C. In turn, `CCC1(C(=O)O)CCN(C(=O)c2ccccc2)CC1` registered a melting point of 154 to 156 °C.

As for `COC(C)(C)C(N)=NO`, the melting point is 104 to 106 °C. The compound `N#Cc1ccc(S(N)(=O)=O)cc1C(F)(F)F` returned a melting point of 195 to 197 °C.

In the case of `CCOC(=O)c1c(N)sc2c1CCC(CC)C2` (stereo not drawn), the melting point fell in the range of 88 to 90 °C. In turn, `c1ccc(Nc2nc3ccccc3s2)cc1` returned a melting point of 139 to 141 °C. `Clc1cccc2c(CBr)csc12` yielded a melting point of 84 to 86 °C. Under `CS(=O)(=O)c1ccc(C2CO2)cc1` (stereo not drawn) stands 97 to 99 °C; under `Cc1ccc2oc(S)nc2n1`, 139 to 141 °C; under `Cc1sc(-n2c(C)ccc2C)c(C(=O)O)c1C`, 171 to 173 °C.

The compound `CCOC(=O)c1cnc(C(=O)O)c(Cl)c1` displayed a melting point of 114 to 116 °C. Under `O=C(O)C1CCCN1C(=O)c1cccs1` (stereo not drawn) stands 145 to 147 °C; under `CCC(CC)C(O)CN` (stereo not drawn), 39 to 41 °C; under `O=C1C=CC(=O)N1C1CCOCC1`, 169 to 171 °C.

With `COc1ccc(S(=O)(=O)N2CCOCC2)cc1N`, the melting point fell in the range of 189 to 191 °C.

`COc1ccc(Cn2nccc2N)c(OC)c1OC` gave a melting point of 71 to 75 °C. The result for `Cc1ccc(C(=O)N2CC(C)CC(C)C2)cc1N` (stereo not drawn) reads 154 to 156 °C; that for `CCCCn1ncc(C(=O)O)c1C`, 77 to 79 °C; that for `CCCCCCCC(=O)NCC(=O)O`, 104 to 106 °C.

`CC(C)(C)OC(=O)N1C2CCC1CC(CC(=O)O)C2` (stereo not drawn): the melting point was in the range of 104 to 106 °C.

On to `NCc1ccc(NC(=O)C(F)(F)F)cc1`, for which the melting point was in the range of 106 to 108 °C.

For `O=C(O)c1cc(C=Cc2ccncc2)nc2ccc(Br)cc12`, the melting point fell in the range of 309 to 311 °C.

Consider `Cc1ccc(NC(=O)OCC(F)(F)F)s1`, for which the melting point lay within 73 to 75 °C. `NC(=O)C1CCCC1` had a melting point of 173 to 175 °C. Under `O=C(O)CCCOc1ccc(I)cc1` stands 126 to 128 °C; under `Nc1ccc(-n2cncn2)c(C(F)(F)F)c1`, 127 to 129 °C.

As for `CC(C)CNc1nc(-c2ccccc2[N+](=O)[O-])cs1`, the melting point lay within 86 to 88 °C. `NNC(=O)c1ccccn1` showed a melting point of 95 to 100 °C. `OCCCOc1ccc(Br)cc1` gave a melting point of 34 to 36 °C. Under `COC(=O)c1ccc(NC(=O)Oc2ccccc2)cc1` stands 185 to 187 °C; under `COc1ccc(N)cc1-n1cnnn1`, 139 to 141 °C. `O=S(=O)(Cl)Cc1c(F)cccc1F` returned a melting point of 73 to 75 °C. Under `NC1CCC(=O)NC1=O` (stereo not drawn) stands 214 to 216 °C. Under `O=C(O)C1COCCO1` (stereo not drawn) stands 59 to 61 °C. Regarding `CC1COCCN1c1ccc(N)cc1` (stereo not drawn), the melting point lay in the range of 89 to 91 °C.

In the case of `CCNC(=O)c1ccc(NC2CCOCC2)c(C)c1`, the melting point lay in the range of 195 to 197 °C. `CC(C)(C)OC(=O)NC1CCCCCC1O` (stereo not drawn): the melting point fell in the range of 85 to 87 °C. Under `CC(NC(=O)CCl)c1ccc2ccccc2c1` (stereo not drawn) stands 201 to 203 °C; under `Cc1ncsc1-c1nc(CN)no1`, 159 to 161 °C. Under `O=C(O)C1CCCN1C(=O)c1cc(Cl)ccc1Cl` (stereo not drawn) stands 194 to 196 °C. In turn, `CCNC(=O)Nc1cccc(F)c1C(=O)O` came in with a melting point of 159 to 161 °C. For the compound `Cc1nc(-c2ccc(N)cc2)cc(=O)[nH]1`, the melting point is 259 to 261 °C. The result for `Nc1ccccc1-c1cc(F)c(F)c(F)c1` reads 64 to 66 °C.

`CC(C)(C)c1ccc(-c2csc(N)n2)cc1` gave a melting point of 127 to 129 °C. The result for `Cc1cc(Cl)c([N+](=O)[O-])cc1N` reads 118 to 120 °C; that for `O=S(=O)(Cl)c1ccc(OCCBr)cc1`, 59 to 61 °C. Compound `Cc1ccc(-c2noc(Cl)n2)cc1` came in with a melting point of 40 to 42 °C. In the case of `Nc1ccc(S(=O)(=O)Nc2ccccc2Cl)cc1`, the melting point was 159 to 161 °C. Under `O=C(CCl)NC(=O)NC12CC3CC(CC(C3)C1)C2` stands 169 to 171 °C. The result for `O=C(O)CCCSc1ccc(Cl)cc1` reads 106 to 108 °C; that for `O=Cc1ccc(Br)cc1[N+](=O)[O-]`, 95 to 100 °C. For `N#CCC(=O)N1CCSCC1`, the melting point is 103 to 105 °C. Take `Sc1nnc(-c2ccncc2)n1-c1ccccc1`: the melting point lay within 290 to 292 °C. As to `CC(C(=O)O)N(C)C(=O)OCC1c2ccccc2-c2ccccc21` (stereo not drawn), the melting point is 119 to 121 °C. `N#Cc1c(N)sc2c1-c1ccccc1CC2` had a melting point of 166 to 168 °C. On to `NC(=O)C1COCCN1` (stereo not drawn), for which the melting point is 168 to 170 °C. Under `NC(=O)c1csc(N)n1` stands 196 to 198 °C; under `CCCS(=O)(=O)N1CCC(C(=O)O)CC1`, 146 to 148 °C. `CC(=O)c1c(O)cc(C)oc1=O`: the melting point was in the range of 109 to 111 °C.

For the compound `CC(=O)c1ccn(S(=O)(=O)c2ccc(C)cc2)c1`, the melting point was in the range of 83 to 85 °C. Under `NS(=O)(=O)c1ccc(C(=O)O)c(F)c1` stands 189 to 191 °C. Under `Nc1nnc(SCc2ccc(F)cc2)s1` stands 145 to 147 °C.

Consider `N#CCCn1cc(C=O)c(-c2ccccc2)n1`, for which the melting point fell in the range of 74 to 76 °C. Consider `O=C(O)c1cncc2ccccc12`, for which the melting point was in the range of 249 to 251 °C. Under `Nc1n[nH]c(=O)[nH]c1=O` stands 334 to 336 °C; under `CCOC(C)c1ncc(C(=O)O)s1` (stereo not drawn), 112 to 114 °C; under `COc1cc(NC(=O)C2CC2)c(C(=O)O)cc1OC`, 236 to 238 °C. The result for `O=C(O)c1cc(-c2ccco2)nn1-c1ccccc1` reads 159 to 161 °C. `NC(=O)C1Cc2cc(S(N)(=O)=O)ccc2O1` (stereo not drawn) yielded a melting point of 223 to 225 °C. Under `COc1ccc(C(=O)NCCCC(=O)O)cc1` stands 122 to 124 °C. `Cc1cc(C(=O)O)c2c(-c3ccco3)noc2n1`: the melting point fell in the range of 232 to 234 °C. `O=C(O)C(=O)NCC(F)F`: the melting point lay within 105 to 107 °C. In turn, `O=C(CCl)ONc1nc2ccccc2[nH]c1=O` yielded a melting point of 187 to 189 °C. In turn, `Cc1[nH]c(=O)[nH]c(=O)c1C#N` gave a melting point of 351 to 353 °C.

As for `CN(C)S(=O)(=O)c1ccc(Cl)c(C(=O)NCCCCCC(=O)O)c1`, the melting point was in the range of 84 to 86 °C. On to `CN(C)C(=O)Nc1ccc(Cl)c(C(=O)O)c1`, for which the melting point fell in the range of 214 to 216 °C. The result for `O=C(O)c1ncncc1Cl` reads 153 to 155 °C; that for `N#Cc1ccc(OCC2CC2)nc1`, 53 to 55 °C; that for `Cc1cc2ncn(CC3CO3)c2cc1C` (stereo not drawn), 119 to 121 °C. The result for `N#Cc1ccc(S(=O)(=O)NCC2CCCO2)cc1` (stereo not drawn) reads 123 to 125 °C; that for `C=CCN1C(=O)C(=NN)c2ccccc21`, 129 to 132 °C.

`O=C(O)C1CCCN(C(=O)c2ccccc2)C1` (stereo not drawn) came in with a melting point of 189 to 191 °C. Compound `CN(C)S(=O)(=O)c1cc(Br)cnc1N` yielded a melting point of 173 to 175 °C. As to `Cc1cc(Br)cc2cc(C#N)oc12`, the melting point lay in the range of 139 to 141 °C.

For the compound `COc1ccc(C)cc1-n1nnnc1S`, the melting point was 164 to 166 °C.

The compound `Cc1cccc(S(=O)(=O)Cl)c1C#N` yielded a melting point of 74 to 76 °C. Under `COC(=O)C(=O)Nc1ccc(C)cc1` stands 147 to 149 °C. `O=C(O)CCN1C(=O)C2CCCCC2C1=O` (stereo not drawn) came in with a melting point of 81 to 83 °C.
